Source: patent US11279733B2, “Peptide antibiotics” (priority 2017, dated 2022)
Where two headings read alike, the source gives them in different places.

How the values were obtained:
Neisseria gonorrhoeae = assay: MIC determination, Neisseria gonorrhoeae; type: cell-based
Outline: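 Mid-log cultures grown in Mueller Hinton broth at 37° C were tested by 2-fold broth microdilution at 5×10^5 CFU/mL final. Compounds were dissolved in water and tested over a final range of 32 to 0.015 μg/mL.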

[1] = tested on: Human kidney 2 (HK2) cells; assay: Cytotoxicity, HK2 LDH assay
Outline: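 HK2 cells were seeded at 2000 per well in DMEM/F12 with 10% FBS and left to attach for 24 h at 37 °C, 5% CO2. They were then exposed for 24 h to 3-fold peptide dilutions starting from 600 μM solutions in quadruplicate. LDH release was read at 450 nm, and CC50 was fitted from dose-response curves.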

“polymyxin B sulfate [PolymyxinB, reference compound]” was tested. Which “MIC N. gonorrhoeae F89” value (Neisseria gonorrhoeae; strain F89) did it give?
The value was 9.38 µg/mL.

And the “MIC N. gonorrhoeae FA19 ATCC BAA-1838” value (Neisseria gonorrhoeae; strain FA19 ATCC BAA-1838)?
The value was 12.5 µg/mL.

And the “MIC N. gonorrhoeae FA1090 A25 ATCC 700825” value (Neisseria gonorrhoeae; strain FA1090 A25 ATCC 700825)?
Its value is 10.42 µg/mL.

What about the “MIC N. gonorrhoeae H041” value (Neisseria gonorrhoeae; strain H041) of the same substance?
The value was 8.33 µg/mL.

What about the CC50 ([1]; read-out: HK2 (LDH) CC50, HK2 cells, LDH) of the same substance?
Its CC50 is 125 µM.

What about the CC50 ([1]; read-out: HK2 (LDH)-CC50, HK2, LDH, 24 h) of the same substance?
The CC50 was 125 µM.

What about the CC50 ([1]; read-out: HK2 (LDH)-CC50, HK2 cells, LDH) of the same substance?
The CC50 was 125 µM.

And the CC50 ([1]; read-out: HK2 (LDH)-CC50, Table 5, HK2 cells, LDH)?
The CC50 was 125 µM.

And the CC50 ([1]; read-out: HK2 (LDH)-CC50, Table 6, HK2 cells, LDH)?
Its CC50 is 125 µM.
